Assay results as given in PubChem BioAssay (NCI).
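Cells were grown in 96-well plates and exposed to each compound for 48 hours at five concentrations; endpoints were interpolated linearly between bracketing concentrations, or set to the highest concentration if not reached. GI50 marks 50% less growth. TGI denotes the concentration required for complete inhibition of growth.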

Assays:
Assay in all cases: NCI tumour cell line growth inhibition, 48 h
OVCAR-8 ovarian = system: OVCAR-8 ovarian
SK-MEL-2 melanoma = system: SK-MEL-2 melanoma
MOLT-4 leukemia = system: MOLT-4 leukemia
MALME-3M melanoma = system: MALME-3M melanoma
SF-539 CNS = system: SF-539 CNS
SK-MEL-5 melanoma = system: SK-MEL-5 melanoma
CCRF-CEM leukemia = system: CCRF-CEM leukemia
DU-145 prostate = system: DU-145 prostate
PC-3 prostate = system: PC-3 prostate
SK-OV-3 ovarian = system: SK-OV-3 ovarian
OVCAR-4 ovarian = system: OVCAR-4 ovarian
CAKI-1 renal = system: CAKI-1 renal
SW-620 colon = system: SW-620 colon
HCT-116 colon = system: HCT-116 colon
T-47D breast = system: T-47D breast
HS 578T breast = system: HS 578T breast
786-0 renal = system: 786-0 renal
MDA-MB-468 breast = system: MDA-MB-468 breast
UO-31 renal = system: UO-31 renal
UACC-62 melanoma = system: UACC-62 melanoma
SNB-19 CNS = system: SNB-19 CNS
SR leukemia = system: SR leukemia
SF-268 CNS = system: SF-268 CNS
A498 renal = system: A498 renal
M14 melanoma = system: M14 melanoma
SNB-75 CNS = system: SNB-75 CNS
LOX IMVI melanoma = system: LOX IMVI melanoma
HL-60(TB) leukemia = system: HL-60(TB) leukemia
IGROV1 ovarian = system: IGROV1 ovarian
NCI-H522 lung = system: NCI-H522 lung
SK-MEL-28 melanoma = system: SK-MEL-28 melanoma
HOP-62 NSCLC = system: HOP-62 NSCLC
MDA-MB-435 = system: MDA-MB-435
NCI-H460 lung = system: NCI-H460 lung
HT29 colon = system: HT29 colon
HOP-92 NSCLC = system: HOP-92 NSCLC
OVCAR-3 ovarian = system: OVCAR-3 ovarian
NCI-H226 lung = system: NCI-H226 lung
MCF7 breast = system: MCF7 breast
BT-549 breast = system: BT-549 breast
K-562 leukemia = system: K-562 leukemia
UACC-257 melanoma = system: UACC-257 melanoma
SN12C renal = system: SN12C renal
MDA-MB-231 breast = system: MDA-MB-231 breast
RXF 393 renal = system: RXF 393 renal
COLO 205 colon = system: COLO 205 colon
OVCAR-5 ovarian = system: OVCAR-5 ovarian
EKVX NSCLC = system: EKVX NSCLC
A549 NSCLC = system: A549 NSCLC
HCC-2998 colon = system: HCC-2998 colon
ACHN renal = system: ACHN renal
KM12 colon = system: KM12 colon
SF-295 CNS = system: SF-295 CNS
TK-10 renal = system: TK-10 renal
HCT-15 colon = system: HCT-15 colon
RPMI-8226 leukemia = system: RPMI-8226 leukemia
NCI-H23 lung = system: NCI-H23 lung
U251 CNS = system: U251 CNS

**Q.** Which GI50 (OVCAR-8 ovarian) does the source give for `C=C1CCC2C3(C)COC(c4c(F)cccc4F)OC3CCC2(C)C1C/C=C1/C(=O)OCC1O` (stereo unspecified) here?
**A.** 2260 nM

**Q.** And the TGI (OVCAR-8 ovarian)?
**A.** 7.04 µM

**Q.** And the GI50 (SK-MEL-2 melanoma)?
**A.** 2880 nM

**Q.** What about the TGI (SK-MEL-2 melanoma) of the same compound?
**A.** 8.52 µM

**Q.** What about the GI50 (MOLT-4 leukemia) of the same compound?
**A.** 3.37 µM

**Q.** What about the TGI (MOLT-4 leukemia) of the same compound?
**A.** 11.1 µM

**Q.** And the GI50 (MALME-3M melanoma)?
**A.** 3.55 µM

**Q.** And the TGI (MALME-3M melanoma)?
**A.** 12.8 µM

**Q.** And the GI50 (SF-539 CNS)?
**A.** 1810 nM

**Q.** And the TGI (SF-539 CNS)?
**A.** 3.3 µM

**Q.** What about the GI50 (SK-MEL-5 melanoma) of the same compound?
**A.** 4.53 µM

**Q.** What about the TGI (SK-MEL-5 melanoma) of the same compound?
**A.** 16.4 µM

**Q.** What about the GI50 (CCRF-CEM leukemia) of the same compound?
**A.** 2240 nM

**Q.** What about the TGI (CCRF-CEM leukemia) of the same compound?
**A.** 6.68 µM

**Q.** What about the GI50 (DU-145 prostate) of the same compound?
**A.** 4.16 µM

**Q.** And the TGI (DU-145 prostate)?
**A.** 14.9 µM

**Q.** What about the GI50 (PC-3 prostate) of the same compound?
**A.** 3.61 µM

**Q.** What about the TGI (PC-3 prostate) of the same compound?
**A.** 13.4 µM

**Q.** What about the GI50 (SK-OV-3 ovarian) of the same compound?
**A.** 17.8 µM

**Q.** What about the TGI (SK-OV-3 ovarian) of the same compound?
**A.** 32.4 µM

**Q.** And the GI50 (OVCAR-4 ovarian)?
**A.** 2580 nM

**Q.** And the TGI (OVCAR-4 ovarian)?
**A.** 7.77 µM

**Q.** What about the GI50 (CAKI-1 renal) of the same compound?
**A.** 3.38 µM

**Q.** What about the TGI (CAKI-1 renal) of the same compound?
**A.** 11.3 µM

**Q.** And the GI50 (SW-620 colon)?
**A.** 1800 nM

**Q.** What about the TGI (SW-620 colon) of the same compound?
**A.** 3.63 µM

**Q.** And the GI50 (HCT-116 colon)?
**A.** 1610 nM

**Q.** And the TGI (HCT-116 colon)?
**A.** 3.04 µM

**Q.** And the GI50 (T-47D breast)?
**A.** 3.25 µM

**Q.** And the TGI (T-47D breast)?
**A.** 17.6 µM

**Q.** And the GI50 (HS 578T breast)?
**A.** 3.92 µM

**Q.** And the TGI (HS 578T breast)?
**A.** 30.5 µM

**Q.** What about the GI50 (786-0 renal) of the same compound?
**A.** 1800 nM

**Q.** What about the TGI (786-0 renal) of the same compound?
**A.** 3.28 µM

**Q.** What about the GI50 (MDA-MB-468 breast) of the same compound?
**A.** 1780 nM

**Q.** And the TGI (MDA-MB-468 breast)?
**A.** 3.58 µM

**Q.** What about the GI50 (UO-31 renal) of the same compound?
**A.** 1730 nM

**Q.** What about the TGI (UO-31 renal) of the same compound?
**A.** 3.99 µM

**Q.** And the GI50 (UACC-62 melanoma)?
**A.** 3.13 µM

**Q.** What about the TGI (UACC-62 melanoma) of the same compound?
**A.** 12 µM

**Q.** And the GI50 (SNB-19 CNS)?
**A.** 8.4 µM

**Q.** What about the TGI (SNB-19 CNS) of the same compound?
**A.** 20.8 µM

**Q.** What about the GI50 (SR leukemia) of the same compound?
**A.** 3.7 µM

**Q.** What about the TGI (SR leukemia) of the same compound?
**A.** 12.5 µM

**Q.** And the GI50 (SF-268 CNS)?
**A.** 4.4 µM

**Q.** And the TGI (SF-268 CNS)?
**A.** 17.2 µM

**Q.** And the GI50 (A498 renal)?
**A.** 19.8 µM

**Q.** And the TGI (A498 renal)?
**A.** 34.5 µM

**Q.** And the GI50 (M14 melanoma)?
**A.** 3.34 µM

**Q.** And the TGI (M14 melanoma)?
**A.** 12 µM

**Q.** What about the GI50 (SNB-75 CNS) of the same compound?
**A.** 3.75 µM

**Q.** What about the TGI (SNB-75 CNS) of the same compound?
**A.** 16.4 µM

**Q.** And the GI50 (LOX IMVI melanoma)?
**A.** 1590 nM

**Q.** And the TGI (LOX IMVI melanoma)?
**A.** 2930 nM

**Q.** And the GI50 (HL-60(TB) leukemia)?
**A.** 2000 nM

**Q.** And the TGI (HL-60(TB) leukemia)?
**A.** 5.03 µM

**Q.** And the GI50 (IGROV1 ovarian)?
**A.** 4.56 µM

**Q.** What about the TGI (IGROV1 ovarian) of the same compound?
**A.** 16.5 µM

**Q.** And the GI50 (NCI-H522 lung)?
**A.** 1650 nM

**Q.** What about the TGI (NCI-H522 lung) of the same compound?
**A.** 3.23 µM

**Q.** What about the GI50 (SK-MEL-28 melanoma) of the same compound?
**A.** 2190 nM

**Q.** And the TGI (SK-MEL-28 melanoma)?
**A.** 4.9 µM

**Q.** And the GI50 (HOP-62 NSCLC)?
**A.** 11.3 µM

**Q.** What about the TGI (HOP-62 NSCLC) of the same compound?
**A.** 24 µM

**Q.** What about the GI50 (MDA-MB-435) of the same compound?
**A.** 1970 nM

**Q.** What about the TGI (MDA-MB-435) of the same compound?
**A.** 4.37 µM

**Q.** And the GI50 (NCI-H460 lung)?
**A.** 3.06 µM

**Q.** What about the TGI (NCI-H460 lung) of the same compound?
**A.** 11.8 µM

**Q.** What about the GI50 (HT29 colon) of the same compound?
**A.** 2060 nM

**Q.** And the TGI (HT29 colon)?
**A.** 4.26 µM

**Q.** And the GI50 (HOP-92 NSCLC)?
**A.** 2940 nM

**Q.** And the TGI (HOP-92 NSCLC)?
**A.** 9.34 µM

**Q.** And the GI50 (OVCAR-3 ovarian)?
**A.** 2020 nM

**Q.** What about the TGI (OVCAR-3 ovarian) of the same compound?
**A.** 4.12 µM

**Q.** And the GI50 (NCI-H226 lung)?
**A.** 1780 nM

**Q.** And the TGI (NCI-H226 lung)?
**A.** 3.42 µM

**Q.** And the GI50 (MCF7 breast)?
**A.** 1950 nM

**Q.** What about the TGI (MCF7 breast) of the same compound?
**A.** 5.48 µM

**Q.** What about the GI50 (BT-549 breast) of the same compound?
**A.** 1890 nM

**Q.** And the TGI (BT-549 breast)?
**A.** 4.17 µM

**Q.** What about the GI50 (K-562 leukemia) of the same compound?
**A.** 3.12 µM

**Q.** And the TGI (K-562 leukemia)?
**A.** 11.3 µM

**Q.** And the GI50 (UACC-257 melanoma)?
**A.** 2280 nM

**Q.** What about the TGI (UACC-257 melanoma) of the same compound?
**A.** 8.77 µM

**Q.** What about the GI50 (SN12C renal) of the same compound?
**A.** 1810 nM

**Q.** And the TGI (SN12C renal)?
**A.** 4.2 µM

**Q.** And the GI50 (MDA-MB-231 breast)?
**A.** 2290 nM

**Q.** What about the TGI (MDA-MB-231 breast) of the same compound?
**A.** 5.45 µM

**Q.** And the GI50 (RXF 393 renal)?
**A.** 3.46 µM

**Q.** What about the TGI (RXF 393 renal) of the same compound?
**A.** 11.4 µM

**Q.** What about the GI50 (COLO 205 colon) of the same compound?
**A.** 2430 nM

**Q.** What about the TGI (COLO 205 colon) of the same compound?
**A.** 5.27 µM

**Q.** And the GI50 (OVCAR-5 ovarian)?
**A.** 2170 nM

**Q.** And the TGI (OVCAR-5 ovarian)?
**A.** 5.06 µM

**Q.** What about the GI50 (EKVX NSCLC) of the same compound?
**A.** 13 µM

**Q.** And the TGI (EKVX NSCLC)?
**A.** 26.1 µM

**Q.** And the GI50 (A549 NSCLC)?
**A.** 4.05 µM

**Q.** And the TGI (A549 NSCLC)?
**A.** 17.2 µM

**Q.** And the GI50 (HCC-2998 colon)?
**A.** 4.26 µM

**Q.** And the TGI (HCC-2998 colon)?
**A.** 15.8 µM

**Q.** And the GI50 (ACHN renal)?
**A.** 1750 nM

**Q.** What about the TGI (ACHN renal) of the same compound?
**A.** 3.16 µM

**Q.** And the GI50 (KM12 colon)?
**A.** 2540 nM

**Q.** What about the TGI (KM12 colon) of the same compound?
**A.** 6.88 µM

**Q.** What about the GI50 (SF-295 CNS) of the same compound?
**A.** 1940 nM

**Q.** What about the TGI (SF-295 CNS) of the same compound?
**A.** 4.67 µM

**Q.** And the GI50 (TK-10 renal)?
**A.** 6.18 µM

**Q.** What about the TGI (TK-10 renal) of the same compound?
**A.** 19.4 µM

**Q.** And the GI50 (HCT-15 colon)?
**A.** 1750 nM

**Q.** And the TGI (HCT-15 colon)?
**A.** 4.12 µM

**Q.** What about the GI50 (RPMI-8226 leukemia) of the same compound?
**A.** 2370 nM

**Q.** What about the TGI (RPMI-8226 leukemia) of the same compound?
**A.** 5.77 µM

**Q.** And the GI50 (NCI-H23 lung)?
**A.** 5.66 µM

**Q.** And the TGI (NCI-H23 lung)?
**A.** 18.5 µM

**Q.** And the GI50 (U251 CNS)?
**A.** 1810 nM

**Q.** And the TGI (U251 CNS)?
**A.** 3.45 µM
